Results on two molecules are retold here after paper PMC8388802, “Study on the Structure-Activity Relationship of an Antimicrobial Peptide, Brevinin-2GUb, from the Skin Secretion of Hylarana guentheri” (Antibiotics, 2021).

Converted amounts (≈) assume the structure as drawn. Where a SMILES comes first, the peptide text is derived from it. Where no end group is shown, it is not given here. Some results are limits rather than exact numbers.

One data set has as its system MRSA (B042 V2E1 A). Type of data set: cell-based, Methicillin-resistant Staphylococcus aureus. As for the experimental part:
(§1) The method of antimicrobial assay is based on the Methods for Dilution Antimicrobial Susceptibility Tests for Bacteria that Grow Aerobically from the Clinical and Laboratory Standards Institute (CLSI).The antimicrobial activities of peptides were evaluated against Gram-positive bacteria S. aureus (ATCC 6538), MRSA (NCTC 12493), E. faecalis (NCTC 12493), Gram-negative bacteria E. coli (ATCC CRM 8739), K. pneumoniae (ATCC 43816), P. aeruginosa (ATCC CRM 9027), yeast C. albicans (ATCC CRM 10231) and clinical isolates MRSA (B042 V2E1 A), E. coli (ATCC BAA-2340), K. pneumoniae (ATCC BAA-1705), P. aeruginosa (B004 V2S2 B).
(§2) At the first stage of the assay, 20 μL bacteria were cultured in 100 mL Mueller Hinton Broth (MHB) or Yeast Extract–Peptone–Dextrose broth (YPD-B), respectively, and was incubated overnight. Then, microorganisms were subcultured in 20 mL fresh MHB or YPD-B to achieve cultures in the logarithmic phase (1 × 10^8 CFU/mL), which can be verified by optical density (OD) (The OD of Gram-positive bacteria is 0.23, OD of Gram-negative bacteria is 0.4, and OD of yeast is 0.15), and viable cell counts. Then, the medium was used to dilute the cultures to specific cell densities (Gram-negative and Gram-positive bacteria: 5 × 10^5 CFU/mL; yeast: 1 × 10^6 CFU/mL), which were the final concentrations of bacterial suspensions used in the assay. The peptides were dissolved in DMSO to reach a final concentration of 512 µM. A series of two-fold dilutions ranging from 512 µM to 1 µM were dosed in the 96-well plates.
(§3) Antimicrobial assays were conducted in 96-well plates, which were divided into five groups, including a negative control group (PBS), a positive control group (20 μg/mL norfloxacin for bacteria and 10 μg/mL amphotericin B for yeast), vehicle control (1% DMSO), blank control (MHB or YPD-B), and a peptide group. Each microorganism had five repetitions, and each well contained 1 µL corresponding solution and 99 µL culture. After incubation at 37 °C overnight, the absorbance of each well was tested by a microplate reader (EL808, Biolise BioTek Winooski, Minneapolis, USA) under a 550 nm wavelength. The MIC is the lowest concentration at which no bacterial growth can be observed.
(§4) The next day, 10 µL of every clear well was taken out to be cultured on a Mueller Hinton Agar (MHA) plate and incubated at 37 °C for 16–20 h. The MBC is the lowest concentration without any bacterial colonies, which means at this concentration, the peptide reduces the viability of the pathogen by more than 99.9%.

A further data set deals with MRSA (NCTC 12493). It is filed as cell-based, Methicillin-resistant Staphylococcus aureus. As for the experimental part: as §1, §2, §3, §4
Data set [1] has as its system K. pneumoniae (ATCC 43816). Type of data set: cell-based, Klebsiella pneumoniae. As for the experimental part: as §1, §2, §3, §4
The subject of data set [2] is K. pneumoniae (ATCC BAA-1705). Type of data set: cell-based, Klebsiella pneumoniae. The procedure: as §1, §2, §3, §4
The next data set has as its system S. aureus (ATCC 6538). Type of data set: cell-based, Staphylococcus aureus. The procedure: as §1, §2, §3, §4
For a further data set, the system named is E. coli (ATCC BAA-2340). It is filed as cell-based, Escherichia coli. The procedure:
as §1, §2, §3, §4

The subject of another data set is E. coli (ATCC CRM 8739). It is filed as cell-based, Escherichia coli. The procedure:
as §1, §2, §3, §4

Data set [3] relates to P. aeruginosa (B004 V2S2 B). Type of data set: cell-based, Pseudomonas aeruginosa. As for the experimental part:
as §1, §2, §3, §4

The test system of data set [4] is P. aeruginosa (ATCC CRM 9027). It is filed as cell-based, Pseudomonas aeruginosa. The procedure: as §1, §2, §3, §4
For the next data set, the system named is E. faecalis (NCTC 12493). It is filed as cell-based, Enterococcus faecalis. The procedure:
as §1, §2, §3, §4

The subject of data set [5] is wax moth (Galleria mellonella). Briefly: Toxicity of peptides to waxworms. Type of data set: in vivo. The note with it: uninfected waxworms, when the concentration reached 15 mg/kg.
Data set [6] deals with K. pneumoniae (ATCC 43816) biofilm. It is filed as cell-based, Klebsiella pneumoniae. The note with it: ATCC 43816, 24 h. The procedure: (§5) The anti-biofilm activities of the peptides against S. aureus (ATCC 6538), MRSA (NCTC 12493), E. faecalis (NCTC 12493), E. coli (ATCC CRM 8739), K. pneumoniae (ATCC 43816), and P. aeruginosa (ATCC CRM 9027) were evaluated.
(§6) The bacteria were inoculated in a different medium (Gram-positive bacteria were in TSB and Gram-negative bacteria were in LB) overnight, and the subculture was conducted in the same medium. When the bacteria reached a specific density, 100 µL of the dilution was added to each well of the 96-well microplate. Then 1 µL of peptide at a series of concentrations, the same concentration in the antimicrobial assay, were added into the well together with the bacteria. The plates were put into a moist shaking incubator with a speed of 200 rpm, and the temperature was set at 37 ℃. After a 24-h incubation, the liquid in the wells was aspirated, and each was washed twice by 100 µL PBS. One hundred µL of methanol were added into each well to stabilise the biofilm. After air-drying, 100 µL crystal violet was used to dye the biofilm, and they were dissolved in the 100 µL glacial acidic acid after drying. The solutions were transferred to a new microplate, and the absorbance of each well was tested by a microplate reader (EL808, Biolise BioTek Winooski, Minneapolis, MN, USA) at 595 nm wavelength. MBIC was the minimum concentration of the peptide showing no biofilm formation.
(§7) The bacteria were inoculated in a different medium (Gram-positive bacteria were in TSB and Gram-negative bacteria were in LB) overnight, and the subculture was conducted in the same medium. When the bacteria reached a specific density, 100 µL of the dilution was added to each well of the 96-well microplates. The plates were put into a moist shaking incubator with a speed of 200 rpm and the temperature was 37 ℃. After a 24 h incubation, the liquid in the wells was aspirated and they were washed twice by 100 µL PBS of each well. The peptides with the same concentrations were diluted in the corresponding medium and 100 µL were added into each well. After a 24-h incubation, the liquid in the wells was aspirated and they were washed twice by 100 µL PBS. One hundred µL of methanol were added into the wells to stabilise the biofilms. After being air-dried, 100 µL crystal violet was used to dye the biofilm, and they were dissolved in the 100 µL glacial acidic acid after drying. The solutions were transferred to a new microplate, and the absorbance of each well was tested by a microplate reader (EL808, Biolise BioTek Winooski, Minneapolis, USA) at 595 nm wavelength.

Data set [7] concerns S. aureus (ATCC 6538) biofilm. It is filed as cell-based, Staphylococcus aureus. The note with it: ATCC 6538, 24 h. The procedure:
as §5, §6, §7

The test system of data set [8] is E. coli (ATCC CRM 8739) biofilm. Type of data set: cell-based, Escherichia coli. The note with it: ATCC CRM 8739, 24 h. As for the experimental part: as §5, §6, §7
Data set [9] deals with E. faecalis (NCTC 12493) biofilm. It is filed as cell-based, Enterococcus faecalis. Particulars: NCTC 12493, 24 h. The procedure: as §5, §6, §7
Data set [10] concerns C. albicans (ATCC CRM 10231). It is filed as cell-based, Candida albicans. The procedure:
as §1, §2, §3, §4

Data set [11] relates to MRSA (NCTC 12493) biofilm. Type of data set: cell-based, Methicillin-resistant Staphylococcus aureus. The note with it: NCTC 12493, 24 h. As for the experimental part:
as §5, §6
The bacteria were inoculated in a different medium (Gram-positive bacteria were in TSB and Gram-negative bacteria were in LB) overnight, and the subculture was conducted in the same medium. When the bacteria reached a specific density, 100 µL of the dilution was added to each well of the 96-well microplates. The plates were put into a moist shaking incubator with a speed of 200 rpm and the temperature was 37 ℃. […] The solutions were transferred to a new microplate, and the absorbance of each well was tested by a microplate reader (EL808, Biolise BioTek Winooski, Minneapolis, USA) at 595 nm wavelength.

For data set [12], the system named is P. aeruginosa (ATCC CRM 9027) biofilm. It is filed as cell-based, Pseudomonas aeruginosa. Particulars: ATCC CRM 9027, 24 h. The procedure:
as §5, §6, §7

Data set [13] concerns enteroaggregative E. coli. Particulars: cited from earlier work. From the text: Due to the influence of physiological factors, there may be some difference between the antimicrobial activity in vitro and in vivo [41]. Consistent with the haemolysis assay and cytotoxicity assay results, Brevinin-2GUb is much harmful to the wax moth than tB2U-K and tB2U-6K. […] In our study, with the increase of the number of net charges, the survival rate of E. coli-infected wax moth is enhanced and the ability o ...

The MIC is the smallest concentration in the dilution series that meets the test's criterion for growth inhibition. A low value points to greater potency.

As for `CC[C@H](C)[C@H](NC(=O)[C@@H](NC(=O)CN)C(C)C)C(=O)N[C@H](C(=O)N[C@@H](CC(=O)O)C(=O)N[C@H](C(=O)N[C@@H](CC(C)C)C(=O)N[C@@H](CCCCN)C(=O)NCC(=O)N[C@@H](C)C(=O)N[C@@H](C)C(=O)N[C@@H](CCCCN)C(=O)N[C@H](C(=O)N[C@H](C(=O)N[C@@H](C)C(=O)N[C@@H](C)C(=O)N[C@@H](CCC(=O)O)C(=O)N[C@@H](CC(C)C)C(=O)N[C@@H](CC(C)C)C(=O)N[C@@H](CCCNC(=N)N)C(=O)N[C@@H](CCCCN)C(=O)N[C@@H](C)C(=O)N[C@@H](Cc1c[nH]cn1)C(=O)N[C@H]1CSSC[C@@H](C(=O)O)NC(=O)[C@H](CO)NC(=O)[C@H](CC(N)=O)NC(=O)[C@H]([C@@H](C)O)NC(=O)[C@H](CC(C)C)NC(=O)[C@H](CCCCN)NC1=O)C(C)C)[C@@H](C)O)[C@@H](C)O)[C@@H](C)CC` [Brevinin-2GUb] (HELM PEPTIDE1{G.V.I.I.D.T.L.K.G.A.A.K.T.V.A.A.E.L.L.R.K.A.H.C.K.L.T.N.S.C}$PEPTIDE1,PEPTIDE1,24:R3-30:R3$$$V2.0), the MBC is >512 µM in the data set with MRSA (B042 V2E1 A); >512 µM in the data set on MRSA (NCTC 12493); 128 µM (≈ 400 µg/mL) in data set [1]; 512 µM (≈ 1600 µg/mL) in data set [2]; 32 µM (≈ 100 µg/mL) against S. aureus (ATCC 6538); 32 µM (≈ 100 µg/mL) against E. coli (ATCC BAA-2340). In addition, the MBC in the data set with E. coli (ATCC CRM 8739) was 16 µM (≈ 50 µg/mL); in [3], >512 µM; in data set [4], 512 µM (≈ 1600 µg/mL); against E. faecalis (NCTC 12493) it was >512 µM; in data set [10], >512 µM. Further, the MIC with MRSA (B042 V2E1 A) was >512 µM; against MRSA (NCTC 12493), >512 µM; in data set [1], 128 µM (≈ 400 µg/mL); in data set [2], 512 µM (≈ 1600 µg/mL); with S. aureus (ATCC 6538), 32 µM (≈ 100 µg/mL); with E. coli (ATCC BAA-2340), 32 µM (≈ 100 µg/mL). Besides, the MIC was 16 µM (≈ 50 µg/mL) with E. coli (ATCC CRM 8739); >512 µM in data set [3]; 128 µM (≈ 400 µg/mL) in data set [4]; >512 µM against E. faecalis (NCTC 12493); >512 µM in [10]. The toxicity to waxworms entry in data set [5] is recorded as “modest toxicity”. Further, the MBEC in data set [6] was >512 µM; in data set [7], > 512 µM; in data set [8], > 512 µM; in data set [9], >512 µM; in [12] it was >512 µM. In addition, the MBIC was >512 µM in [6]; 256 µM in data set [7]; 128 µM in [8]; >512 µM in [9]; 256 µM in data set [11]; >512 µM in [12].

As to “Indolicidin (ILPWKWPWWPWRR; ends and bridges not checked; UniProt P33046 131-143, looked up) [antimicrobial peptide of a previous study in Galleria mellonella]”, the “survival rate of Galleria mellonella infected by the enteroaggregative E. coli” value in data set [13] is reported as “up to 95%”.
